Counter-ions that a name gives are not always drawn.

Here are results for one compound from US9506056B2, “Nucleic acid functionalized nanoparticles for therapeutic applications” (NORTHWESTERN UNIVERSITY, priority 2006, dated 2016).

This data set has as its system A549 cells. Briefly: Cell viability of dox-treated A549 cultures with oligonucleotide-modified nanoparticles. Conditions: dox alone at 25 μm dox concentration. The class given is cell-based, human. The protocol:
As proof of the oligonucleotide-modified gold nanoparticle for drug control concept, the anticancer drug doxorubicin hydrochloride (dox) in a lung cancer cell model (A549) was investigated. […] However, when an oligonucleotide functionalized nanoparticle agent containing a non-specific sequence is added to the culture at the same point as the drug molecule, a dose-dependant recovery of cell viability is observed (cells recover to approximately 80% viable at 3 nM concentration of nanoparticles). The dox-treated cells were then examined in the presence of an anti-survivin oligonucleotide modified gold nanoparticle conjugate. […] In these studies, the anti-survivin containing nanoparticle agent added to the culture at the same point as the drug molecule reduce cell viability to 45% at low concentrations and recover cell viability to 75% at high concentrations (FIG. 3).

`COc1cccc2c1C(=O)c1c(O)c3c(c(O)c1C2=O)C[C@@](O)(C(=O)CO)C[C@@H]3O[C@H]1C[C@H](N)[C@H](O)[C@H](C)O1` [dox, doxorubicin hydrochloride]: the cell viability entry is listed as “approximately 60%”.
